These results are taken from US11413267B2, “Methods and compositions for inhibition of ATR and FANCD2 activation” (priority 2012, dated 2022).

Test [1] concerns GFP expressing adenovirus (Ad-GFP). In words: Ad-GFP infection of HEK293A cells. In kind it is cell-based. Particulars: for Ad-GFP infection: 0.2-2 μM. An excerpt: To test the effects of anti-virus infection of benzopyran-4-one derivative compounds, a green fluorescent protein (GFP) expressing adenovirus to visualize adenovirus infection was used. To obtain the reporter virus, the GFP cDNA is amplified from pEGFP-N1 (Clontech, Accession: U55762.1) through a polymerase chain reaction with primers 5′-CACCATGGTGAGCAAGGGC-3′ [SEQ ID NO: 5] and 5′-[…]-3′ [SEQ ID NO: 6], and then cloned into pENTR™/D-TOP vector (Invitrogen). The GFP cDNA was transferred to adenovirus vector pAd/CMV/V5-DEST™ through an in vitro recombination method using LR Clonase® II after the sequence was confirmed. We selected the ampicillin- and […] clones to obtain the pAd-GFP. The pAd-GFP plasmid is then transfected into E1a and E1b expressing HEK293A cells to produce a crude GFP expression adenoviral stock (Ad-GFP). The adenovirus was amplified by infecting HEK293A cells. The adenoviral stock was titered and later used to infect the cells for the analysis.
To observe the anti-virus effect of the benzopyran-4-one derivative compounds, Ad-GFP and Lenti-GFP at a low MOI of 0.5 were then applied to infect the HEK293A cells and HEK293T cells, respectively. In the prevention group, cells were treated by compounds of Compound I-1 at 0.2, 1, and 2 μM or Compound II-1 at 0.1, 0.5, 1 μM for 30 minutes before Ad-GFP and Lenti-GFP infection. In the treatment group, cells were treated by compounds of Compound I-1 at 0.2, 1, and 2 μM or Compound II-1 at 0.1, 0.5, and 1 μM for 2 hours after Ad-GFP and Lenti-GFP infection. After a total of 6 hours of compounds and virus treatments, cells were washed with Hank's buffered salt solution and a flash culture media was replaced.
24 hours after virus infection, the effect of the benzopyran-4-one derivative compounds on the antivirus infection was recorded by observing the GFP positive cells under an inverted fluorescence microscope. The mean fluorescence intensity by flow cytometry in each plate of cells was analyzed for quantification.

The subject of test [2] is MDA-MB-231 tumor xenograft. In words: Human xenograft tumors in nude mice. The test is classed as in vivo. An excerpt:
Inhibition of the checkpoint and repair mechanisms leads to chemosensitization in cancers. […] We further treated individual cells with cisplatin in combination with several varying doses of benzopyran-4-one derivatives, and counted survival colonies to determine their ability to survive after cisplatin-induced damage. […] To investigate the chemosensitization effect of low-dose benzopyran-4-one derivatives in vivo, we established a tumor xenograft in nude mice using human MDA-MB-231 tumor cells, which are considered to be more resistant to cisplatin and are also sensitive to treatment with benzopyran-4-one derivatives, at least as compared to A549 cells (FIGS. 4, 17(a) and 17(b)). […] The pharmacokinetic data of Protoapigenone (I-1) and compound II-1 needs to be compared in future studies to determine the differences in the chemical effects of these 2 compounds in vitro and in vivo.
Human breast cancer MAD-MB-231 cells were harvested from the culture, resuspended in medium without serum at 1×10^8 cells/mL, and 0.1 mL of this suspension was subcutaneously injected into the right flank of female nude mice (BALB/cAnN-Foxn1nu/Crl Narl; purchased from the National Science Council Animal Center, Taiwan). Tumor-injected mice that successfully developed tumors that grew to approximately 50-100 mm^3 in volume were randomly sorted into groups and used for the experiments. […]

Test [3] deals with DDR signaling (Chk2 Thr68, Chk1 Ser345 phosphorylation). In words: Immunoblot of DDR signaling after compound alone (no DNA damage). In kind it is cell-based, human. The protocol:
Since mitomycin C can induce DDR in many cancers, we investigated what kind of DDR signaling was activated by Protoapigenone (I-1). […] We repeated the benzopyran-4-one derivatives experiment on lung and breast carcinoma cell lines A549 and MDA-MB-231 cells, respectively, and obtained similar results. Consistently, no marked changes in Chk1 and Chk2 phosphorylation signaling were detected even at high doses of either drug for as long as 8 h after drug treatment (FIGS. 3(a) and 3(b)).
(§1) Cell lysate preparations, gel electrophoresis, and immunoblotting were performed as previously described (23). The binding of primary antibodies were detected by horseradish peroxidase-coupled secondary antibodies (Jackson ImmunoResearch) followed by enhanced chemiluminescence (ECL) (Millipore). The images of non-saturated bands were captured using a luminescent image analyzer (LAS-4000 mini; Fujifilm). The antibodies used in this study are listed in supplementary materials.

Test [4] has as its system ATM-mediated Chk2 phosphorylation. In words: Immunoblot of DNA damage-induced Chk2 phosphorylation / ATM autophosphorylation. In kind it is cell-based, human. Particulars: for UV-induced or H2O2-induced Chk2 phosphorylation: HEK293T cells with siRNAs against ATM and DNA-PKcs.
Excerpt: We hypothesized that genes with functions associated with DNA damage checkpoints and/or DNA repair might be targeted by benzopyran-4-one derivatives. To test this hypothesis, we assessed the effects of benzopyran-4-one derivatives on DDR induced by H2O2. […] In response to DNA double-strand breaks (DSBs), FANCD2 is known to be monoubiquitinated on K561 (FANCD2-Ub) in an ATR-dependent manner to stimulate repair (Andreassen P R, et al. Genes Dev 2004).
To elucidate the specificity of the benzopyran-4-one derivatives inhibition on ATR-mediated signaling, we compared the change between cells treated with benzopyran-4-one derivatives or the ATM-specific inhibitor KU55933 before the induction of DDR.
MDA-MB-231 (breast adenocarcinoma; ATCC HTB-26, BCRC 60425) and A549 (lung adenocarcinoma; ATCC CCL-185, BCRC 60074) human cell lines were purchased from Bioresource Collection and Research Center (BCRC, Hsinchu, Taiwan), and were authenticated by American Type Culture Collection (ATCC, Manassas, Va.). U2OS (osteosarcoma), HeLa (cervical adenocarcinoma), and HEK 293T (embryonic kidney cells) human cell lines were provided by Dr. Sheau-Yann Shieh (Institute of Molecular Biology, Academia Sinica, Taipei, Taiwan). Cells were maintained in Dulbecco's modified Eagle's medium (DMEM, Sigma-Aldrich) supplemented with 10% fetal bovine serum (FBS) (Gibco). […] For UV irradiation treatment, the cells were irradiated for 10 J/m^2 by a cross-linker (UVP) 1 h prior to analysis.
as §1

The mark [5] stands for this setting: A594 cells, 0.1 mM H2O2 for 2 h.
The mark [6] stands for this setting: post-treatment 2 hours after infection, 0.1-1 μM.
[7] abbreviates: pre-treatment 30 minutes before infection, 0.1-1 μM, MOI 0.5, 24 hours.

On to `O=C1C=CC(O)(c2cc(=O)c3c(O)cc(O)cc3o2)C=C1` [Compound I-1, Protoapigenone], for which the Ad-GFP infection entry in test [1] (post-treatment) is “did not inhibit the Ad-GFP infection”; in test [1] (pre-treatment), “did not prevent the Ad-GFP infection”. Also, the “Cisplatin sensitivity of MDA-MB-231 tumors” value in test [2] (2 mg/kg (data not shown)) is given as “did not affect the cisplatin sensitivity”. For the same compound, in test [3] (HEK293T cells), the p53 protein accumulation entry was “slight accumulation of the p53 protein”. Also, the “Change of putative DDR signaling (phosphorylation of Chk2 Thr68 and Chk1 Ser345)” value in test [3] (HEK293T cells, high doses (10 μM, FIG. 2)) is “did not induce noticeable changes”. Further, in test [3] (HEK293T cells, time after exposure), the “MAPKAPK2 phosphorylation (p38 MAPK target)” value is reported as “phosphorylated starting as early as 2 h”. The ATM autophosphorylation entry in test [4] (setting [5]) is on record as “not affected”. In addition, the Chk2 phosphorylation result in test [4] (setting [5]) was “promote”. Moreover, the “UV-induced or H2O2-induced Chk2 phosphorylation” value in test [4] was “not altered”.
For `O=C1C=CC(O)(c2cc(=O)c3c(ccc4ccccc43)o2)C=C1` [Compound II-1, 3-(1-hydroxy-4-oxo-cyclohexa-2,5-dienyl)-1H-benzo[f]chromen-1-one], in test [1] (setting [6]), the “MFI of GFP protein” value is recorded as “decreased” and the “Number of GFP cells” value is on record as “decreased”. Besides, in test [1] (setting [7]), the “Mean fluorescence intensity (MFI) of GFP protein” value is recorded as “decreased” and the “Number of GFP cells” value is recorded as “decreased”. In addition, the inhibition at 1 µM in test [1] (unidentified adenovirus, HEK293-A, read-out: Virus inhibition effect) was 50 to 99%. For the same compound, in test [2] (0.2 mg/kg with 2 mg/kg cisplatin, intraperitoneally every 4 d), the Tumor inhibitory effect result is “greater than that of cisplatin treatment alone”. Also, the “Chk2 activation by compound itself” value in test [3] (high dose, no DNA damage (FIGS. 3(a), 3(b))) was “slightly induces”. Also, the “UV-induced or H2O2-induced Chk2 phosphorylation” value in test [4] is “increased”.
